# According to ChEMBL document CHEMBL5241069, “A key review on oxadiazole analogs as potential methicillin-resistant Staphylococcus aureus (MRSA) activity: Structure-activity relationship studies” (Eur J Med Chem, 2021):
# Columns and labels:
# Staphylococcus aureus [1] = experiment: Antimicrobial activity against methicillin resistant Staphylococcus aureus A252 assessed as inhibition of bacterial growth incubated for 16 to 20 hrs by CLSI protocol based method; format: functional; settings: time 16-20 hrs
# Staphylococcus aureus [2] = experiment: Antimicrobial activity against methicillin resistant Staphylococcus aureus USA300 assessed as inhibition of bacterial growth incubated for 16 to 20 hrs by CLSI protocol based method; format: functional; settings: time 16-20 hrs
# Staphylococcus aureus [3] = experiment: Antimicrobial activity against Staphylococcus aureus Newman assessed as inhibition of bacterial growth incubated for 16 to 20 hrs by CLSI protocol based method; format: functional; settings: time 16-20 hrs
# Staphylococcus aureus [4] = experiment: Antimicrobial activity against methicillin resistant Staphylococcus aureus 2658 RCMB assessed as inhibition of bacterial growth incubated for 20 hrs by CLSI protocol based broth microdilution method; format: functional
# Staphylococcus aureus [5] = experiment: Antibacterial activity against methicillin resistant Staphylococcus aureus ATCC 43300 assessed as inhibition of bacterial growth incubated for 24 to 48 hrs by spectrophotometric analysis; format: functional; settings: time 24-48 hrs
# Staphylococcus aureus [6] = experiment: Antimicrobial activity against methicillin resistant Staphylococcus aureus 2 assessed as inhibition of bacterial growth incubated for 16 to 20 hrs by CLSI protocol based Muller-Hinton broth method; format: functional; settings: time 16-20 hrs
# Staphylococcus aureus [7] = experiment: Antimicrobial activity against methicillin resistant Staphylococcus aureus 3 assessed as inhibition of bacterial growth incubated for 16 to 20 hrs by CLSI protocol based Muller-Hinton broth method; format: functional; settings: time 16-20 hrs
# Staphylococcus aureus [8] = experiment: Antimicrobial activity against methicillin resistant Staphylococcus aureus 1 assessed as inhibition of bacterial growth incubated for 16 to 20 hrs by CLSI protocol based Muller-Hinton broth method; format: functional; settings: time 16-20 hrs
# Staphylococcus aureus [9] = experiment: Antibacterial activity against methicillin resistant Staphylococcus aureus assessed as inhibition zone by CLSI protocol based agar disc diffusion method; format: functional
# Staphylococcus aureus [10] = experiment: Antibiofilm activity against methicillin resistant Staphylococcus aureus ATCC 43866 assessed as inhibition of biofilm formation incubated for 18 to 24 hrs by tissue culture plate method; format: functional; settings: time 18-24 hrs
# Staphylococcus aureus [11] = experiment: Antibacterial activity against methicillin resistant Staphylococcus aureus 181 assessed as inhibition of bacterial growth; format: functional
# Staphylococcus aureus [12] = experiment: Antibacterial activity against methicillin resistant Staphylococcus aureus 42 assessed as inhibition of bacterial growth; format: functional
# Staphylococcus aureus [13] = experiment: Antibacterial activity against methicillin resistant Staphylococcus aureus 128 assessed as inhibition of bacterial growth; format: functional
# Staphylococcus aureus [14] = experiment: Antibacterial activity against methicillin resistant Staphylococcus aureus 747 assessed as inhibition of bacterial growth; format: functional
# Staphylococcus aureus [15] = experiment: Antibacterial activity methicillin resistant Staphylococcus aureus 2658 RCMB assessed as inhibition of bacterial growth by broth microdilution method; format: functional
# Staphylococcus aureus [16] = experiment: Antibacterial activity against methicillin resistant Staphylococcus aureus MTCC 84 incubated for 24 hrs by serial dilution method; format: functional
# Staphylococcus aureus [17] = experiment: Antimicrobial activity against methicillin resistant Staphylococcus aureus ATCC 43300 assessed as inhibition of bacterial growth incubated for 18 to 24 hrs by broth microdilution method; format: functional; settings: time 18-24 hrs
# Staphylococcus aureus [18] = experiment: Antibacterial activity against methicillin resistant Staphylococcus aureus ATCC 33592 incubated for 24 hrs by Mueller-Hinton broth based assay; format: functional
# Staphylococcus aureus [19] = experiment: Antibacterial activity against methicillin resistant Staphylococcus aureus assessed as inhibition of bacterial growth; format: functional, organism-based
# Staphylococcus aureus [20] = experiment: Antibacterial activity against methicillin resistant Staphylococcus aureus USA300 assessed as inhibition of bacterial growth incubated for 16 to 20 hrs by CLSI protocol based Mueller-Hinton broth method; format: functional; settings: time 16-20 hrs
# Staphylococcus aureus [21] = experiment: Antibacterial activity against methicillin resistant Staphylococcus aureus MW2 assessed as inhibition of bacterial growth incubated for 16 to 20 hrs by CLSI protocol based Mueller-Hinton broth method; format: functional; settings: time 16-20 hrs
# Staphylococcus aureus [22] = experiment: Antimicrobial activity against methicillin resistant Staphylococcus aureus ATCC 25923 assessed as inhibition of bacterial growth by agar diffusion cup plate method; format: functional
# Staphylococcus aureus [23] = experiment: Antibacterial activity against methicillin resistant Staphylococcus aureus assessed as inhibition zone by disc diffusion method; format: functional; further: test concentration or dose not given here
# [24] = Cytotoxicity against rat NRK-52E cells assessed as inhibition of cell growth incubated for 24 hrs by CCK-8 assay; format: toxicity, cell-based
# Staphylococcus aureus [25] = experiment: microbe, parasite or virus in culture; settings: 032
# Description: Antibacterial activity against methicillin resistant Staphylococcus aureus 032 assessed as inhibition of bacterial growth by CLSI protocol based serial dilution method
# Staphylococcus aureus [26] = experiment: Antibacterial activity against methicillin resistant Staphylococcus aureus incubated for 24 hrs by broth microdilution method; format: functional
molecule,measurement,setting,value
O=C(Nc1nnc(-c2ccc(F)cc2)o1)c1ccc(Cl)cc1,MIC,Staphylococcus aureus [1],1.28 µg/mL
same,MIC,Staphylococcus aureus [2],0.64 µg/mL
same,MIC,Staphylococcus aureus [3],1.28 µg/mL
Cc1nc(-c2ccc3ccccc3c2)sc1-c1nnc(NC(=N)N2CCNCC2)o1,MIC,Staphylococcus aureus [4],1.95 µg/mL
O=C(/C=C/c1ccc([N+](=O)[O-])cc1)N1N=C(c2ccncc2)OC1c1cn(-c2ccccc2)nc1-c1ccc(F)cc1 (stereo unspecified),MIC,Staphylococcus aureus [5],12.5 µg/mL
CCn1cc(C(=O)O)c(=O)c2cc(F)c(N3CCN(Cc4nnc(-c5ccc(OC)cc5)o4)CC3)cc21,MIC,Staphylococcus aureus [6],0.5 µg/mL
same,MIC,Staphylococcus aureus [7],1 µg/mL
same,MIC,Staphylococcus aureus [8],1 µg/mL
Cc1nc(-c2ccc3ccccc3c2)sc1-c1nnc(N2CC(O)C2)o1,MIC,Staphylococcus aureus [4],3.9 µg/mL
CCn1cc(C(=O)O)c(=O)c2cc(F)c(N3CCN(Cc4nnc(-c5ccc(F)cc5Cl)o4)CC3)cc21,MIC,Staphylococcus aureus [6],1 µg/mL
same,MIC,Staphylococcus aureus [7],1 µg/mL
same,MIC,Staphylococcus aureus [8],1 µg/mL
O=P(Oc1ccccc1)(Oc1ccccc1)C(Nc1nnc(-c2cccc(Br)n2)o1)c1ccc(Cl)c(F)c1 (stereo unspecified),inhibition zone (IZ),Staphylococcus aureus [9],17 mm
O=C(N[C@H](CO)[C@H](O)c1ccc([N+](=O)[O-])cc1)C(Cl)Cl [CHLORAMPHENICOL],MIC,Staphylococcus aureus [5],50 µg/mL
CN[C@H](CC(C)C)C(=O)N[C@H]1C(=O)N[C@@H](CC(N)=O)C(=O)N[C@H]2C(=O)N[C@H]3C(=O)N[C@H](C(=O)N[C@H](C(=O)O)c4cc(O)cc(O)c4-c4cc3ccc4O)[C@H](O)c3ccc(c(Cl)c3)Oc3cc2cc(c3O[C@@H]2O[C@H](CO)[C@@H](O)[C@H](O)[C@H]2O[C@H]2C[C@](C)(N)[C@H](O)[C@H](C)O2)Oc2ccc(cc2Cl)[C@H]1O [VANCOMYCIN],MIC,Staphylococcus aureus [4],1.95 µg/mL
same,MIC,Staphylococcus aureus [10],6.25 µg/mL
same,MIC,Staphylococcus aureus [11],20.3 µg/mL
same,MIC,Staphylococcus aureus [12],13.1 µg/mL
same,MIC,Staphylococcus aureus [13],20.7 µg/mL
same,MIC,Staphylococcus aureus [14],21.6 µg/mL
O=P(Oc1ccccc1)(Oc1ccccc1)C(Nc1nnc(-c2cccc(Br)n2)o1)c1cccc(F)c1 (stereo unspecified),inhibition zone (IZ),Staphylococcus aureus [9],17 mm
Cc1nc(-c2ccc(C(C)(C)C)cc2)sc1-c1nnc(NC(=N)c2cccnc2)o1,MIC,Staphylococcus aureus [15],> 50 µg/mL
O=[N+]([O-])c1ccc(C(Nc2nnc(-c3cccc(Br)n3)o2)P(=O)(Oc2ccccc2)Oc2ccccc2)cc1F (stereo unspecified),inhibition zone (IZ),Staphylococcus aureus [9],17 mm
Cc1nc(-c2ccc(C(C)(C)C)cc2)sc1-c1nnc(NC(=N)c2ccncc2)o1,MIC,Staphylococcus aureus [15],> 50 µg/mL
CCn1cc(C(=O)O)c(=O)c2cc(F)c(N3CCN(Cc4nnc(-c5cccc(C)c5)o4)CC3)cc21,MIC,Staphylococcus aureus [6],1 µg/mL
same,MIC,Staphylococcus aureus [7],2 µg/mL
same,MIC,Staphylococcus aureus [8],1 µg/mL
CCn1cc(C(=O)O)c(=O)c2cc(F)c(N3CCN(Cc4nnc(-c5ccc(C#N)cc5)o4)CC3)cc21,MIC,Staphylococcus aureus [6],1 µg/mL
same,MIC,Staphylococcus aureus [7],2 µg/mL
same,MIC,Staphylococcus aureus [8],1 µg/mL
O=P(Oc1ccccc1)(Oc1ccccc1)C(Nc1nnc(-c2cccc(Br)n2)o1)c1ccc(F)c(Cl)c1 (stereo unspecified),inhibition zone (IZ),Staphylococcus aureus [9],17 mm
Cc1ccc(OCc2nnco2)c(C(=O)c2cccc(Cl)c2)c1,MIC,Staphylococcus aureus [16],62.5 µg/mL
CN[C@@H]1[C@H](O[C@H]2[C@H](O[C@H]3[C@H](O)[C@@H](O)[C@H](N=C(N)N)[C@@H](O)[C@@H]3N=C(N)N)O[C@@H](C)[C@]2(O)C=O)O[C@@H](CO)[C@H](O)[C@H]1O [STREPTOMYCIN],MIC,Staphylococcus aureus [16],> 100 µg/mL
GENTAMICIN,MIC,Staphylococcus aureus [17],100 µg/mL
Cc1nc(-c2ccc(C(C)(C)C)cc2)sc1-c1nnc(NC(=N)N2CCOCC2)o1,MIC,Staphylococcus aureus [15],25 µg/mL
Cc1cc(C(=O)Nc2nnc(-c3ccc(C(F)(F)F)cc3)o2)ccc1S(=O)(=O)N1C[C@H](C)C[C@H](C)C1,MIC,Staphylococcus aureus [18],11 µg/mL
"2-((phenylbismuthino)thio)-5-(2-(p-tolyl)thiazol-4-yl)-1,3,4-oxadiazole",MIC,Staphylococcus aureus [19],1100 nM
O=C(/C=C/c1cccc(F)c1)N1N=C(c2ccncc2)OC1c1cn(-c2ccccc2)nc1-c1ccc(F)cc1 (stereo unspecified),MIC,Staphylococcus aureus [5],25 µg/mL
C[C@@H]1C[C@H](C)CN(S(=O)(=O)c2ccc(C(=O)Nc3nnc(-c4ccc(C(F)(F)F)cc4)o3)cc2)C1,MIC,Staphylococcus aureus [18],0.25 µg/mL
CCCCC(=O)Nc1nnc(-c2ccc(Cl)cc2)o1,MBC,Staphylococcus aureus [20],8 µg/mL
same,MBC,Staphylococcus aureus [21],64 µg/mL
CCn1cc(C(=O)O)c(=O)c2cc(F)c(N3CCN(Cc4nnc(-c5ccccc5Cl)o4)CC3)cc21,MIC,Staphylococcus aureus [6],1 µg/mL
same,MIC,Staphylococcus aureus [7],1 µg/mL
same,MIC,Staphylococcus aureus [8],0.5 µg/mL
O=C(Nc1nnc(-c2ccc(F)cc2)o1)c1cccc(C(F)(F)F)c1,MIC,Staphylococcus aureus [1],0.7 µg/mL
same,MIC,Staphylococcus aureus [2],0.35 µg/mL
same,MIC,Staphylococcus aureus [3],0.7 µg/mL
Cc1nc(-c2ccc(C(C)(C)C)cc2)sc1-c1nnc(NN)o1,MIC,Staphylococcus aureus [15],6.25 µg/mL
COc1ccc(-c2nnc(C)o2)cc1,MIC,Staphylococcus aureus [22],25 µg/mL
CCn1cc(C(=O)O)c(=O)c2cc(F)c(N3CCN(Cc4nnc(-c5ccccc5C)o4)CC3)cc21,MIC,Staphylococcus aureus [6],0.5 µg/mL
same,MIC,Staphylococcus aureus [7],2 µg/mL
same,MIC,Staphylococcus aureus [8],1 µg/mL
O=C(O)c1cn(C2CC2)c2cc(N3CCNCC3)c(F)cc2c1=O [CIPROFLOXACIN],inhibition zone (IZ),Staphylococcus aureus [23],22 mm
same,MIC,Staphylococcus aureus [16],> 100 µg/mL
Cc1nc(-c2ccc3ccccc3c2)sc1-c1nnc(NC(=N)N)o1,MIC,Staphylococcus aureus [4],1.95 µg/mL
CCn1cc(C(=O)O)c(=O)c2cc(F)c(N3CCNCC3)cc21 [NORFLOXACIN],MIC,Staphylococcus aureus [6],2 µg/mL
same,MIC,Staphylococcus aureus [7],1 µg/mL
same,MIC,Staphylococcus aureus [8],1 µg/mL
CCn1cc(C(=O)O)c(=O)c2cc(F)c(N3CCN(Cc4nnc(-c5cccc(OC)c5)o4)CC3)cc21,MIC,Staphylococcus aureus [6],0.25 µg/mL
same,MIC,Staphylococcus aureus [7],1 µg/mL
same,MIC,Staphylococcus aureus [8],0.5 µg/mL
same,IC50 at 24 h,[24],> 200 µg/mL
C=C(C)C(=O)OCC[N+](C)(C)Cc1nnc(CCCCc2nnc(C[N+](C)(C)CCOC(=O)C(=C)C)o2)o1.[Cl-].[Cl-],MIC,Staphylococcus aureus [17],0.98 µg/mL
Cc1nnc(-c2ccc(O)cc2)o1,MIC,Staphylococcus aureus [22],25 µg/mL
Cc1nc(-c2ccc3ccccc3c2)sc1-c1nnc(NN)o1,MIC,Staphylococcus aureus [4],3.9 µg/mL
Cc1nc(-c2ccc(C(C)(C)C)cc2)sc1-c1nnc(NC(=N)c2ccccn2)o1,MIC,Staphylococcus aureus [15],> 50 µg/mL
C=C(C)C(=O)OCC[N+](CC)(CC)Cc1nnc(CCCCc2nnc(C[N+](CC)(CC)CCOC(=O)C(=C)C)o2)o1.[Cl-].[Cl-],MIC,Staphylococcus aureus [17],0.98 µg/mL
Cc1nc(-c2ccc(C(C)(C)C)cc2)sc1-c1nnc(NC(=N)N)o1,MIC,Staphylococcus aureus [15],6.25 µg/mL
CC[C@H]1OC(=O)[C@H](C)[C@@H](O[C@H]2C[C@@](C)(OC)[C@@H](O)[C@H](C)O2)[C@H](C)[C@@H](O[C@@H]2O[C@H](C)C[C@H](N(C)C)[C@H]2O)[C@](C)(O)C[C@@H](C)C(=O)[C@H](C)[C@@H](O)[C@]1(C)O [ERYTHROMYCIN],MIC,Staphylococcus aureus [25],> 32 µg/mL
CNC(=N)Nc1nnc(-c2sc(-c3ccc4ccccc4c3)nc2C)o1,MIC,Staphylococcus aureus [4],3.9 µg/mL
Cc1nc(/C(=C\c2coc3cc(C)c(Cl)cc3c2=O)c2ccc([N+](=O)[O-])cc2)no1,MIC,Staphylococcus aureus [25],16 µg/mL
O=C(/C=C/c1cccc([N+](=O)[O-])c1)N1N=C(c2ccncc2)OC1c1cn(-c2ccccc2)nc1-c1ccc(F)cc1 (stereo unspecified),MIC,Staphylococcus aureus [5],> 50 µg/mL
COc1cc(OC)cc(-c2nnc(NC(=O)c3ccc(S(=O)(=O)C4COCC4(C)C)cc3)o2)c1 (stereo unspecified),MBC,Staphylococcus aureus [20],8 µg/mL
same,MBC,Staphylococcus aureus [21],16 µg/mL
Cc1nc(-c2ccc(C(C)(C)C)cc2)sc1-c1nnc(NC(=N)N2CCN(C)CC2)o1,MIC,Staphylococcus aureus [15],25 µg/mL
Nc1scc(-c2ccc(F)cc2)c1-c1nnc(S)o1,MIC,Staphylococcus aureus [26],8 µg/mL
